In ChEMBL document CHEMBL5649166, “RIP3 induces apoptosis independent of pronecrotic kinase activity” (Mol Cell, 2014) one finds Activity, inhibition and residual activity data, which are given here for 3 compounds.

One may read the inhibition as the share of the control response that was lost under treatment. As a reminder, the residual activity is what remains of the control signal, in per cent.

Active and inactive are the calls of the source. The calls are words filed in the database; no cut-off is given here.

Data set [1] relates to 3T3SA. Description: Induction of apoptosis in RIP3shRNA transfected mouse 3T3SA cells co-transfected with shRNA-resistant RIP3 pre-tranfected for 16 hrs followed by compound addition and measured after 18 hrs in presence of zVAD by Cell Titer-Glo luminescent cell viability assay. It counts as toxicity, cell-based.
The test system of data set [2] is 3T3SA. In words: Induction of apoptosis in mouse 3T3SA cells assessed as cell death by measuring percent of PI positive cells incubated for 3 hrs by PI staining based flow cytometric analysis (reference value: 10.7%). Format: toxicity. For orientation: A flow cytometer gives signals particle by particle.
Data set [3] has as its system MEF. In words: Inhibition of necroptosis in MEF cells expressing RIP1 K45A/K45A mutant incubated for 18 hrs by Cell Titer-Glo luminescent cell viability assay. It counts as functional, cell-based. The following applies: Mus musculus. For orientation: Cellular ATP, detected with luciferase, serves as a proxy for viable cell number.
In data set [4] the test system is 3T3SA. Description: Induction of apoptosis in vICA expression plasmid transfected mouse 3T3SA cells co-transfected with shRNA-resistant RIP3 incubated for 12 hrs by Cell Titer-Glo luminescent cell viability assay. It counts as toxicity, cell-based.
The next data set concerns BMDM. In words: Induction of apoptosis in mouse BMDM cells expressing wildtype RIP3 incubated for 18 hrs by Cell Titer-Glo luminescent cell viability assay. Format: toxicity, cell-based.
A further data set deals with L929. Description: Inhibition of TLR-3 induced necroptosis in mouse L929 cells assessed as increase in cell viability at 1 uM incubated for 18 hrs in presence of poly(I:C) by Cell Titer-Glo luminescent cell viability assay. It counts as functional, cell-based.
Data set [5] concerns 3T3SA. In words: Induction of apoptosis in mouse 3T3SA cells transfected with Caspase8 siRNA incubated for 2.5 hrs by Cell Titer-Glo luminescent cell viability assay. It counts as toxicity, cell-based.
In data set [6] the test system is 3T3SA. In words: Induction of apoptosis in RIP3shRNA transfected mouse 3T3SA cells co-transfected with shRNA-resistant RIP3 T257A mutant pre-tranfected for 16 hrs followed by compound addition and measured after 18 hrs in presence of zVAD by Cell Titer-Glo luminescent cell viability assay. Format: toxicity, cell-based.
The test system of data set [7] is 3T3SA. In words: Induction of apoptosis in mouse 3T3SA cells incubated for 18 hrs in presence of BHA by Cell Titer-Glo luminescent cell viability assay. Format: toxicity, cell-based.
Data set [8] has as its system 3T3SA. In words: Induction of apoptosis in mouse 3T3SA cells incubated for 18 hrs in presence of zLEHD by Cell Titer-Glo luminescent cell viability assay. Format: toxicity, cell-based.
Data set [9] has as its system 3T3SA. In words: Induction of apoptosis in RIP3shRNA transfected mouse 3T3SA cells co-transfected with shRNA-resistant RIP3 K51A mutant pre-tranfected for 16 hrs followed by compound addition and measured after 18 hrs in presence of zVAD by Cell Titer-Glo luminescent cell viability assay. Format: toxicity, cell-based.
In data set [10] the test system is MEF. Description: Induction of apoptosis in TNF-/- MEF cells incubated for 18 hrs by Cell Titer-Glo luminescent cell viability assay. It counts as toxicity, cell-based. The following applies: mouse.
The subject of data set [11] is 3T3SA. Description: Induction of apoptosis in mouse 3T3SA cells transfected with Caspase8 siRNA assessed as cleaved caspase 8 accumulation incubated for 2.5 hrs by immunoblot analysis. It counts as toxicity, cell-based. (Immunoblotting shows a protein as a band on a membrane.)
For data set [12], the system named is 3T3SA. In words: Induction of apoptosis in mouse 3T3SA cells assessed as cell death by measuring percent of PI positive cells incubated for 8 hrs by PI staining based flow cytometric analysis (reference value: 11.4%). It counts as toxicity.
Data set [13] relates to MEF. Description: Induction of apoptosis in MEF cells expressing wildtype RIP3 incubated for 18 hrs by Cell Titer-Glo luminescent cell viability assay. The following applies: mouse. It counts as toxicity, cell-based.
Data set [14] deals with SVEC4-10. Description: Inhibition of DAI-induced necroptosis in wildtype MCMV infected mouse SVEC4-10 cells assessed as increase in cell viability at 10 uM incubated for 18 hrs by Cell Titer-Glo luminescent cell viability assay. It counts as functional, cell-based.
Data set [15] concerns SVEC4-10. In words: Induction of apoptosis in mouse SVEC4-10 cells transfected with RIP3 shRNA at 10 uM incubated for 18 hrs by Cell Titer-Glo luminescent cell viability assay. It counts as toxicity, cell-based. To be noted: svec4-10, 18 h.
Data set [16] has as its system 3T3SA. In words: Induction of apoptosis in RIP3 shRNA transfected mouse 3T3SA cells co-transfected with shRNA resistant RIP3 D143N mutant assessed as accumulation of FLAG-tagged RIP3 D143N mutant in pellet incubated for 3 hrs in presence of zVAD by immunoblot analysis. Format: toxicity, cell-based.
Data set [17] has as its target Myosin-IIIb (Homo sapiens) (UniProt Q8WXR4). Description: Inhibition of human MYO3b using myelin basic protein as substrate at 1 uM in presence of 32P-ATP by Hotspot assay relative to control; values are per cent of control.
Data set [18] addresses Serine/threonine-protein kinase tousled-like 2 (Homo sapiens) (UniProt Q86UE8). Description: Inhibition of human TLK2 using casein as substrate at 1 uM in presence of 32P-ATP by Hotspot assay relative to control; values are per cent of control.
Data set [19] deals with Serine/threonine-protein kinase mTOR (Homo sapiens) (UniProt P42345). In words: Inhibition of human mTOR/FRAP1 using at 1 uM in presence of 32P-ATP by Hotspot assay relative to control.

Sequence of Serine/threonine-protein kinase tousled-like 2 (Homo sapiens) (Q86UE8 whole entry, looked up): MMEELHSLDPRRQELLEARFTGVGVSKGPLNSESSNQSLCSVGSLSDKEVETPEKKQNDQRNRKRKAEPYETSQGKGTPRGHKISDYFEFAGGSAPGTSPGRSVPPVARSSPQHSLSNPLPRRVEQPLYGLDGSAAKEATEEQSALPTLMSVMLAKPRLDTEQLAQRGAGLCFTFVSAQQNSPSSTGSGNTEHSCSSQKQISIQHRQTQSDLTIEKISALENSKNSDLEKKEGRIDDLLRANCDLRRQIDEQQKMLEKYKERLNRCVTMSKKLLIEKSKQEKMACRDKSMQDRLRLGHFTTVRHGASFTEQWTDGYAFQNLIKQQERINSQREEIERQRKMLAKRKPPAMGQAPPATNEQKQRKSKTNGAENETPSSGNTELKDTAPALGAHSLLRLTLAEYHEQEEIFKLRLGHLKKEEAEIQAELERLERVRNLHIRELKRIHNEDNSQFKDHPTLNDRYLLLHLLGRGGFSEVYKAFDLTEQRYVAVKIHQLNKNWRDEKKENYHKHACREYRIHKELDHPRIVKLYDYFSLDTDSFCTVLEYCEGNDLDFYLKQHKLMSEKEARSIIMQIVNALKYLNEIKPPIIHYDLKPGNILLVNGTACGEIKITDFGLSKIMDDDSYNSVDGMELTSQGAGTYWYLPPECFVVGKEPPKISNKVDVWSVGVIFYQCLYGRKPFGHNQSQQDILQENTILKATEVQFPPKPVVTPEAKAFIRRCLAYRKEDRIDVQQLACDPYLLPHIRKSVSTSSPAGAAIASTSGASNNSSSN
Sequence of Myosin-IIIb (Homo sapiens) (Q8WXR4 whole entry): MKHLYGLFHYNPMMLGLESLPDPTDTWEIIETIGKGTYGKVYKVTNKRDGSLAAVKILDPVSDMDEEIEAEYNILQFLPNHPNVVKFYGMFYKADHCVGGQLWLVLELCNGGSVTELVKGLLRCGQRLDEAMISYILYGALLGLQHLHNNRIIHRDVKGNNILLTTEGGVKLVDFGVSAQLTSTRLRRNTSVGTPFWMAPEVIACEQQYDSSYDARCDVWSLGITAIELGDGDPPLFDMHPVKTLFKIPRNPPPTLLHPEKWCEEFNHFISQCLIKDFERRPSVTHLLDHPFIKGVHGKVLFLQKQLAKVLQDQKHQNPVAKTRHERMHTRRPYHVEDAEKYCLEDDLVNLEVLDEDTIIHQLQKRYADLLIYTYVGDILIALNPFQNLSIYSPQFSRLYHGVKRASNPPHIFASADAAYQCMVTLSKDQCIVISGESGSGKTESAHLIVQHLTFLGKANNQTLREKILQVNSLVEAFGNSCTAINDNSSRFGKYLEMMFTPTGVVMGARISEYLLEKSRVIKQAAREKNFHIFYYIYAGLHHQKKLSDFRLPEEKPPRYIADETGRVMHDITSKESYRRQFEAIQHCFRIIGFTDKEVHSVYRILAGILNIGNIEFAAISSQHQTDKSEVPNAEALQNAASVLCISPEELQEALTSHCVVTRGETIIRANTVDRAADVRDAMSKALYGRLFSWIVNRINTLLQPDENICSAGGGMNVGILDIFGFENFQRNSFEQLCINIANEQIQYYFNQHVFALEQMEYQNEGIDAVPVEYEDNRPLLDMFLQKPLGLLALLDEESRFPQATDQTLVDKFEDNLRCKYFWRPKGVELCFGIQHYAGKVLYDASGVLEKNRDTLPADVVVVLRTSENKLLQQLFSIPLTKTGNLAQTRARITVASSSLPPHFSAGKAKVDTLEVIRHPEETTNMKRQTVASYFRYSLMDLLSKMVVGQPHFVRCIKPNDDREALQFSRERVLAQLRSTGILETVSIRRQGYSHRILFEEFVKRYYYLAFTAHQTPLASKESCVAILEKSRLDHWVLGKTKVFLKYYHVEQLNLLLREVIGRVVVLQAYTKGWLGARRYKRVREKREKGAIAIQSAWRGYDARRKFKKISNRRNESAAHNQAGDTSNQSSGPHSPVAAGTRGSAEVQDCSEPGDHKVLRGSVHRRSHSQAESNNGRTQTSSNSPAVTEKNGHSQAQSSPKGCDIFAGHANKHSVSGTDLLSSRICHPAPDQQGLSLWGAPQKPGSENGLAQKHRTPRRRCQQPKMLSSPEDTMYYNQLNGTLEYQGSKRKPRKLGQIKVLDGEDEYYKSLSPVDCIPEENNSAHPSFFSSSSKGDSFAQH

`CC(C)S(=O)(=O)c1ccc2nccc(Nc3ccc4scnc4c3)c2c1`: the Activity entry in the data set with 3T3SA [1] is recorded as “Non-Toxic”; in the data set on 3T3SA [2], 24%; in the data set on 3T3SA [4], “Non-Toxic”; with BMDM, “Toxic”; with 3T3SA [5], “Non-Toxic”; with 3T3SA [6], “Non-Toxic”. In addition, the Activity result is on record as “Toxic” in the data set on 3T3SA [7]; “Toxic” with 3T3SA [8]; “Non-Toxic” with 3T3SA [9]; “Toxic” in the data set with MEF [10]; “Non-Toxic” in the data set on 3T3SA [11]; 62% in the data set with 3T3SA [12]. Moreover, the Activity result with MEF [13] is recorded as “Toxic”; in the data set with SVEC4-10 [15], “Non-Toxic”; with 3T3SA [16], “Toxic”. Moreover, the inhibition result in the data set with MEF [3] and with L929 was “Active” in each case. Besides, the inhibition result with SVEC4-10 [14] is “inactive”.
As for `CNC(=O)c1ccc2c(c1)ncn2-c1ccc(CC(=O)OC(C)(C)C)cc1`, the residual activity worked out at 92.4% in data set [17] and 94.4% in data set [18].
As for `Cc1cc(-c2cnc(N)c3c(-c4ccc5scnc5c4)csc23)n(C)n1`, the inhibition in data set [19] is 60.8%.
